One assay addresses T1, MCR-1 (Homo sapiens, UniProt Q01726).
T1 construct: expressed in transfected cells; host or cells: HEK 293
Put plainly: Melanocortin receptor binding assay, competition with 125I-HP 467, HEK 293 cells expressing hMCR-1. The note with it: inhibition of binding of 125I-HP 467, HEK 293 cells expressing MCR-1, TRG 2414 library; for IC50: read-out: MC-1 IC50. A digest of the protocol: (§1)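 Test compounds compete on intact HEK 293 cells carrying hMCR-1 (2×10^4 per tube) or hMCR-4 (4×10^3 per tube), suspended in PBS, 10% calf serum, 1 mM CaCl2.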

For a further assay, the target named is T2, MCR-4 (Homo sapiens, UniProt P32245).
T2 construct: expressed in transfected cells; host or cells: HEK 293
T2 sequence (P32245 whole entry): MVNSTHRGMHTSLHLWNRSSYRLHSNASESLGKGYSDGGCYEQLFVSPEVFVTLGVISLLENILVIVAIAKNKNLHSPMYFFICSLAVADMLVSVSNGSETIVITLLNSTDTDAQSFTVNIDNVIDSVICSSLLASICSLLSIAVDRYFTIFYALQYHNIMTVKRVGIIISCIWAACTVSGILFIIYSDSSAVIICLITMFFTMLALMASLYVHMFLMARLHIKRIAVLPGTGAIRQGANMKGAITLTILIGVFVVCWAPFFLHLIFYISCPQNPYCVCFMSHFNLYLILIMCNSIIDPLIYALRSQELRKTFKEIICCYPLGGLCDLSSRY
The assay is described as follows: Melanocortin receptor binding assay, competition with 125I-HP 467, HEK 293 cells expressing hMCR-4. The conditions noted are these: inhibition of binding of 125I-HP 467, HEK 293 cells expressing MCR-4, TRG 2414 library; for IC50: read-out: MC-4 IC50. A digest of the protocol:
as §1

What is called IC50 is the midpoint of a concentration-inhibition curve.

T1 sequence (Q01726 whole entry): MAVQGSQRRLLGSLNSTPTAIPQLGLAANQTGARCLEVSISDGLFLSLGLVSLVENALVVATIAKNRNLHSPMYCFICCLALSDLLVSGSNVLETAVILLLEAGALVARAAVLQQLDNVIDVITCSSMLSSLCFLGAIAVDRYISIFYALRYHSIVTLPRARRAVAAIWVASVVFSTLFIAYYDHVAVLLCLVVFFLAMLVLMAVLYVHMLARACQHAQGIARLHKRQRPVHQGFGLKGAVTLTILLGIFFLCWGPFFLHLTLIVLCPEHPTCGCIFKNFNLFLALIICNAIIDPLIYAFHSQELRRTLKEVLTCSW

Take `NCC(CCCCN1Cc2ccccc2C(CNCCc2cccc(Cl)c2)C1c1cc(C(F)(F)F)cc(C(F)(F)F)c1)NCc1ccccc1` (stereo not drawn) [TRG 2414-55]: the concentration for half-maximal inhibition (IC50) at MCR-1 was 12.5 µM; at MCR-4, 3.12 µM.
For the compound `CC(C)Cc1ccc(C(C)CNC(CN)CCCCN2Cc3ccccc3C(CNCCc3cccc(Cl)c3)C2c2cc(C(F)(F)F)cc(C(F)(F)F)c2)cc1` (stereo not drawn) [TRG 2414-56], the “MC-1 IC50” value on MCR-1 is recorded as “no fit”. The IC50 at MCR-4 amounted to 42.6 µM.
With `COc1cccc(CNCC2c3ccccc3CN(CCCCC(N)CN)C2c2cc(C(F)(F)F)cc(C(F)(F)F)c2)c1` (stereo not drawn) [TRG 2414-57], the IC50 came out at 7.7 µM at MCR-1 and 1.55 µM on MCR-4.
In the same order, the values of `COc1cccc(CNCC2c3ccccc3CN(CCCCC(CN)NCCc3ccccc3)C2c2cc(C(F)(F)F)cc(C(F)(F)F)c2)c1` (stereo not drawn) [TRG 2414-58] are 6.72 µM and 3.45 µM.
Taken in the same sequence, the figures for `COc1cccc(CNCC2c3ccccc3CN(CCCCC(CN)NCc3ccccc3)C2c2cc(C(F)(F)F)cc(C(F)(F)F)c2)c1` (stereo not drawn) [TRG 2414-59] were 9.64 µM and 6.76 µM.
With `COc1cccc(CNCC2c3ccccc3CN(CCCCC(CN)NCC(C)c3ccc(CC(C)C)cc3)C2c2cc(C(F)(F)F)cc(C(F)(F)F)c2)c1` (stereo not drawn) [TRG 2414-60], the “MC-1 IC50” value at MCR-1 was “no fit”. For the same compound, on MCR-4, the IC50 was 52.6 µM.
Consider `COc1ccc(CNCC2c3ccccc3CN(CCCCC(N)CN)C2c2cc(C(F)(F)F)cc(C(F)(F)F)c2)cc1` (stereo not drawn) [TRG 2414-61], for which the values for the IC50 at MCR-1 and at MCR-4 were 10.5 µM and 1.67 µM, respectively.
For `COc1ccc(CNCC2c3ccccc3CN(CCCCC(CN)NCCc3ccccc3)C2c2cc(C(F)(F)F)cc(C(F)(F)F)c2)cc1` (stereo not drawn) [TRG 2414-62], the values for the IC50 on MCR-1 and on MCR-4 were 15.5 µM and 6.87 µM, respectively.
In the same order, the values of `COc1ccc(CNCC2c3ccccc3CN(CCCCC(CN)NCc3ccccc3)C2c2cc(C(F)(F)F)cc(C(F)(F)F)c2)cc1` (stereo not drawn) [TRG 2414-63] are 14.5 µM and 5.34 µM.
Taken in the same sequence, the figures for `COc1ccc(CNCC2c3ccccc3CN(CCCCC(CN)NCC(C)c3ccc(CC(C)C)cc3)C2c2cc(C(F)(F)F)cc(C(F)(F)F)c2)cc1` (stereo not drawn) [TRG 2414-64] were 34.5 µM and 45.5 µM.
In the same order, the values of `COc1ccc(CCNCC2c3ccccc3CN(CCCCC(N)CN)C2c2cc(C(F)(F)F)cc(C(F)(F)F)c2)cc1` (stereo not drawn) [TRG 2414-65] are 3.3 µM and 0.26 µM.
`COc1ccc(CCNCC2c3ccccc3CN(CCCCC(CN)NCCc3ccccc3)C2c2cc(C(F)(F)F)cc(C(F)(F)F)c2)cc1` (stereo not drawn) [TRG 2414-66]: the IC50 on MCR-1 was 10.5 µM; on MCR-4 it was 3.2 µM.
In the same order, the values of `COc1ccc(CCNCC2c3ccccc3CN(CCCCC(CN)NCc3ccccc3)C2c2cc(C(F)(F)F)cc(C(F)(F)F)c2)cc1` (stereo not drawn) [TRG 2414-67] are 0.033 µM and 5.21 µM.
On to `COc1ccc(CCNCC2c3ccccc3CN(CCCCC(CN)NCC(C)c3ccc(CC(C)C)cc3)C2c2cc(C(F)(F)F)cc(C(F)(F)F)c2)cc1` (stereo not drawn) [TRG 2414-68], for which the “MC-1 IC50” value at MCR-1 is “no fit”. Also, the IC50 on MCR-4 is 17.7 µM.
For `NCC(N)CCCCN1Cc2ccccc2C(CNCc2ccccc2)C1c1cc(C(F)(F)F)cc(C(F)(F)F)c1` (stereo not drawn) [TRG 2414-69], the IC50 at MCR-1 came to 9.45 µM; on MCR-4, 0.64 µM.
Taken in the same sequence, the figures for `NCC(CCCCN1Cc2ccccc2C(CNCc2ccccc2)C1c1cc(C(F)(F)F)cc(C(F)(F)F)c1)NCCc1ccccc1` (stereo not drawn) [TRG 2414-70] were 18.3 µM and 9.29 µM.
On to `NCC(CCCCN1Cc2ccccc2C(CNCc2ccccc2)C1c1cc(C(F)(F)F)cc(C(F)(F)F)c1)NCc1ccccc1` (stereo not drawn) [TRG 2414-71], for which the IC50 on MCR-1 amounted to 17 µM; at MCR-4, 9.06 µM.
On to `CC(C)Cc1ccc(C(C)CNC(CN)CCCCN2Cc3ccccc3C(CNCc3ccccc3)C2c2cc(C(F)(F)F)cc(C(F)(F)F)c2)cc1` (stereo not drawn) [TRG 2414-72], for which the “MC-1 IC50” value at MCR-1 was “no fit”. Further, at MCR-4, the IC50 worked out at 44.2 µM.
`NCC(N)CCCCN1Cc2ccccc2C(CNC2CCCCCC2)C1c1cc(C(F)(F)F)cc(C(F)(F)F)c1` (stereo not drawn) [TRG 2414-73]: the results for the IC50 on MCR-1 and on MCR-4 were 5.77 µM and 1.01 µM, respectively.
In the same order, the values of `NCC(CCCCN1Cc2ccccc2C(CNC2CCCCCC2)C1c1cc(C(F)(F)F)cc(C(F)(F)F)c1)NCCc1ccccc1` (stereo not drawn) [TRG 2414-74] are 11.2 µM and 4.57 µM.
Taken in the same sequence, the figures for `NCC(CCCCN1Cc2ccccc2C(CNC2CCCCCC2)C1c1cc(C(F)(F)F)cc(C(F)(F)F)c1)NCc1ccccc1` (stereo not drawn) [TRG 2414-75] were 1.92 µM and 3.24 µM.
As to `CC(C)Cc1ccc(C(C)CNC(CN)CCCCN2Cc3ccccc3C(CNC3CCCCCC3)C2c2cc(C(F)(F)F)cc(C(F)(F)F)c2)cc1` (stereo not drawn) [TRG 2414-76], the “MC-1 IC50” value on MCR-1 is on record as “no fit”. For the same compound, the concentration for half-maximal inhibition (IC50) on MCR-4 stood at 54.4 µM.
For `NCC(N)CCCCN1Cc2ccccc2C(CNC2CCCCC2)C1c1cc(C(F)(F)F)cc(C(F)(F)F)c1` (stereo not drawn) [TRG 2414-77], the IC50 stood at 3.86 µM at MCR-1 and 0.63 µM at MCR-4.
Taken in the same sequence, the figures for `NCC(CCCCN1Cc2ccccc2C(CNC2CCCCC2)C1c1cc(C(F)(F)F)cc(C(F)(F)F)c1)NCCc1ccccc1` (stereo not drawn) [TRG 2414-78] were 6.28 µM and 4.26 µM.
In the same order, the values of `NCC(CCCCN1Cc2ccccc2C(CNC2CCCCC2)C1c1cc(C(F)(F)F)cc(C(F)(F)F)c1)NCc1ccccc1` (stereo not drawn) [TRG 2414-79] are 10.4 µM and 4.99 µM.
Regarding `CC(C)Cc1ccc(C(C)CNC(CN)CCCCN2Cc3ccccc3C(CNC3CCCCC3)C2c2cc(C(F)(F)F)cc(C(F)(F)F)c2)cc1` (stereo not drawn) [TRG 2414-80], the half-inhibitory concentration (IC50) at MCR-1 worked out at 23.7 µM; at MCR-4, 27 µM.
Turning to `NCC(CCCCN1Cc2ccccc2C(CNCc2ccccc2C(F)(F)F)C1c1cccc(Oc2ccccc2)c1)NCc1ccccc1` (stereo not drawn) [TRG 2414-83], the IC50 at MCR-1 is 31.5 µM. For the same compound, the “MC-4 IC50” value on MCR-4 is “no fit”.
Turning to `CC(C)Cc1ccc(C(C)CN[C@H](CN)CCCCN2Cc3ccccc3C(CNCc3ccccc3C(F)(F)F)C2c2cccc(Oc3ccccc3)c2)cc1` (stereo partly drawn) [TRG 2414-84], the “MC-1 IC50” value on MCR-1 is “no fit”. In addition, at MCR-4, the “MC-4 IC50” value is reported as “no fit”.
For the compound `CCOc1ccccc1CNCC1c2ccccc2CN(CCCCC(CN)NCCc2ccccc2)C1c1cccc(Oc2ccccc2)c1` (stereo not drawn) [TRG 2414-86], the IC50 at MCR-1 turned out to be 11.8 µM; on MCR-4, 16.2 µM.
In the case of `CCOc1ccccc1CNCC1c2ccccc2CN(CCCCC(CN)NCc2ccccc2)C1c1cccc(Oc2ccccc2)c1` (stereo not drawn) [TRG 2414-87], the 50% inhibitory concentration (IC50) on MCR-1 amounted to 6.65 µM; on MCR-4 it was 11.2 µM.
For the compound `CCOc1ccccc1CNCC1c2ccccc2CN(CCCCC(CN)NCC(C)c2ccc(CC(C)C)cc2)C1c1cccc(Oc2ccccc2)c1` (stereo not drawn) [TRG 2414-88], the 50% inhibitory concentration (IC50) at MCR-1 came out at 36.5 µM. For the same compound, the “MC-4 IC50” value at MCR-4 is on record as “no fit”.
As to `COc1ccccc1CCNCC1c2ccccc2CN(CCCCC(N)CN)C1c1cccc(Oc2ccccc2)c1` (stereo not drawn) [TRG 2414-89], the concentration for half-maximal inhibition (IC50) came to 1.26 µM at MCR-1 and 0.73 µM at MCR-4.
In the same order, the values of `COc1ccccc1CCNCC1c2ccccc2CN(CCCCC(CN)NCCc2ccccc2)C1c1cccc(Oc2ccccc2)c1` (stereo not drawn) [TRG 2414-90] are 3.52 µM and 4.06 µM.
Taken in the same sequence, the figures for `COc1ccccc1CCNCC1c2ccccc2CN(CCCCC(CN)NCc2ccccc2)C1c1cccc(Oc2ccccc2)c1` (stereo not drawn) [TRG 2414-91] were 3.21 µM and 2.74 µM.
In the case of `NCC(N)CCCCN1Cc2ccccc2C(CNCCc2cccc(Cl)c2)C1c1cccc(Oc2ccccc2)c1` (stereo not drawn) [TRG 2414-93], the IC50 on MCR-1 is 6.3 µM; at MCR-4, 3.8 µM.
In the case of `NCC(CCCCN1Cc2ccccc2C(CNCCc2cccc(Cl)c2)C1c1cccc(Oc2ccccc2)c1)NCCc1ccccc1` (stereo not drawn) [TRG 2414-94], the IC50 on MCR-1 amounted to 16.9 µM; at MCR-4, 8.2 µM.
For the compound `NCC(CCCCN1Cc2ccccc2C(CNCCc2cccc(Cl)c2)C1c1cccc(Oc2ccccc2)c1)NCc1ccccc1` (stereo not drawn) [TRG 2414-95], the half-maximal inhibitory concentration (IC50) stood at 8.66 µM at MCR-1 and 5.26 µM on MCR-4.
On to `CC(C)Cc1ccc(C(C)CNC(CN)CCCCN2Cc3ccccc3C(CNCCc3cccc(Cl)c3)C2c2cccc(Oc3ccccc3)c2)cc1` (stereo not drawn) [TRG 2414-96], for which the “MC-1 IC50” value at MCR-1 is reported as “no fit”. Besides, on MCR-4, the IC50 turned out to be 50.6 µM.
Take `COc1cccc(CNCC2c3ccccc3CN(CCCCC(CN)NCc3ccccc3)C2c2cccc(Oc3ccccc3)c2)c1` (stereo not drawn) [TRG 2414-99]: the IC50 at MCR-1 worked out at 5.86 µM; on MCR-4, 6.93 µM.
`COc1cccc(CNCC2c3ccccc3CN(CCCCC(CN)NCC(C)c3ccc(CC(C)C)cc3)C2c2cccc(Oc3ccccc3)c2)c1` (stereo not drawn) [TRG 2414-100]: the “MC-1 IC50” value on MCR-1 is on record as “no fit”. At MCR-4, the “MC-4 IC50” value was “no fit”.
For `COc1ccc(CNCC2c3ccccc3CN(CCCCC(N)CN)C2c2cccc(Oc3ccccc3)c2)cc1` (stereo not drawn) [TRG 2414-101], the IC50 at MCR-1 was found to be 2.5 µM; at MCR-4 it was 1.26 µM.
With `COc1ccc(CNCC2c3ccccc3CN(CCCCC(CN)NCCc3ccccc3)C2c2cccc(Oc3ccccc3)c2)cc1` (stereo not drawn) [TRG 2414-102], the 50% inhibitory concentration (IC50) worked out at 12.2 µM at MCR-1 and 6.91 µM on MCR-4.
Turning to `COc1ccc(CNCC2c3ccccc3CN(CCCCC(CN)NCC(C)c3ccc(CC(C)C)cc3)C2c2cccc(Oc3ccccc3)c2)cc1` (stereo not drawn) [TRG 2414-104], the “MC-1 IC50” value at MCR-1 is “no fit”. Moreover, the IC50 on MCR-4 worked out at 46.2 µM.
On to `COc1ccc(CCNCC2c3ccccc3CN(CCCCC(N)CN)C2c2cccc(Oc3ccccc3)c2)cc1` (stereo not drawn) [TRG 2414-105], for which the IC50 is 3.71 µM at MCR-1 and 2.68 µM at MCR-4.
In the same order, the values of `COc1ccc(CCNCC2c3ccccc3CN(CCCCC(CN)NCCc3ccccc3)C2c2cccc(Oc3ccccc3)c2)cc1` (stereo not drawn) [TRG 2414-106] are 12.9 µM and 10 µM.

The values above are taken from US6608082B1, “Treatment of erectile dysfunction using isoquinoline compound melanocortin receptor ligands” (Lion Bioscience AG, priority 1998, dated 2003).
